Test results reported in patent publication US10975083B2, “Blood-brain barrier-penetrant dopamine-β-hydroxylase inhibitors” (BIAL—PORTELA & Cᵃ, S.A., priority 2016, dated 2021).
Where two headings read alike, the source gives them in different places.

Target: T1, DβH (Homo sapiens, UniProt P09172)
T1 construct: reaction mixture (total volume 500 μl) contained: cellular homogenate (75 μg total protein); host or cells: SK-N-SH cell homogenate
T1 sequence (P09172 1-617): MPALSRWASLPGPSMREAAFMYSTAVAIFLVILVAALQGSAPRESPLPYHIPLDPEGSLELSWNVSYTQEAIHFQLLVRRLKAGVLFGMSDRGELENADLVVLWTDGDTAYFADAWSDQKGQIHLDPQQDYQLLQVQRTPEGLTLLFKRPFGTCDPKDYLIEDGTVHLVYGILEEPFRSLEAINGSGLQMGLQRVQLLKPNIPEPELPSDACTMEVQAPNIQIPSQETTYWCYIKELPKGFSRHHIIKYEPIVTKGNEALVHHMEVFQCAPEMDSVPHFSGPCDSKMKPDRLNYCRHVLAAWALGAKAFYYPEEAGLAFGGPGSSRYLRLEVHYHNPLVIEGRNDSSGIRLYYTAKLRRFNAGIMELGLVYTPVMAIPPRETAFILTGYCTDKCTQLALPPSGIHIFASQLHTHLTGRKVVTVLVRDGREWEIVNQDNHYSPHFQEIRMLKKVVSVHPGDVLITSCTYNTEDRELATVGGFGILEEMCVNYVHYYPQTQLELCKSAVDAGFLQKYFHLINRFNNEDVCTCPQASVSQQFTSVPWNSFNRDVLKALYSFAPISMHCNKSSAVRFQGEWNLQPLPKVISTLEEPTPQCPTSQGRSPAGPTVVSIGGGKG
Test: DβH inhibition cell assay (SK-N-SH cellular homogenates, tyramine to octopamine)
Format: biochemical
Details: for remaining activity at 0.1 µM: inhibitor 0.1 μM, read-out: DβH activity in % of Ctrl (0.1 μM); for remaining activity at 1 µM: read-out: DβH activity in % of Ctrl (1 μM)
Procedure: The ability of a compound to inhibit DβH activity may be assessed using the following cell assay. […] . […] Fetal bovine serum was removed from cells for 4 h prior to collection.
For the preparation of cellular homogenates, media was removed and cell monolayers were washed with 50 mM Tris-HCl pH 7.4. Cells were subsequently scrapped off the flasks and were resuspended in 50 mM Tris pH 7.4. Cell suspensions were homogenized with SilentCrusher M (Heidolph) for a short stroke and resultant homogenates were aliquoted and stored frozen at −80° C.
Total protein was quantified in cellular homogenates with BioRad Protein Assay (BioRad) using a standard curve of BSA (50-250 μg/mL).
DβH activity was measured by a modification of the method of Nagatsu and Udenfriend (Nagatsu, T. and S. Udenfriend: “Photometric assay of dopamine-hydroxylase activity in human blood.” Clin. Chem. 18(9): 980-3, 1972) which is based on the enzymatic hydroxylation of tyramine into octopamine. The octopamine formed is subsequently oxidized to p-hydroxybenzaldehyde and measured by spectrophotometry. In brief, reaction mixture (total volume 500 μl) contained: cellular homogenate (75 μg total protein) sodium acetate pH 5.0 (200 mM), NEM (30 mM), CuSO4 (5 μM), catalase aqueous solution (0.5 mg/mL), pargyline-HCl (1 mM), sodium fumarate (10 mM), ascorbic acid (10 mM), inhibitor or vehicle and tyramine (25 mM). After a 10 min pre-incubation period at 37° C., the reaction was initiated by the addition of tyramine. Reaction was carried out for 45 min at 37° C. before termination with 50 μl PCA (2 M).
Samples were centrifuged for 3 min at 16100 g and supernatants were subjected to solid phase extraction. Solid phase extraction was performed using either SPE cartridges ISOLUTE SCX-3 (100 mg, 1 mL) or SPE 2 mL fixed 96 well plates ISOLUTE SCX-3 (100 mg) previously equilibrated with MilliQ water. Columns/plates were centrifuged at 150 g for 2 min. Eluate was discarded and matrix was washed with 1 mL of MilliQ water after which octopamine was eluted with 2×0.25 mL ammonium hydroxide (4 M). The oxidation of octopamine to p-hydroxybenzaldehyde was carried out for 6 min with 100 μl sodium periodate (2%) and was stopped with 100 μl sodium metabisulfite (10%). Absorbance was measured at 330 nm on a Spectramax microplate reader (Molecular Devices, Sunnyvale, Calif.). All enzymatic reactions were performed in duplicate. Results are reported in the table below as activity in % of control at the inhibitor concentration tested.

[1] = inhibitor 1 μM, SK-N-SH cell homogenate

Row | SMILES | remaining activity at 0.1 µM (SK-N-SH cell homogenate) | remaining activity at 1 µM [1] | remaining activity at 1 µM
1 | [2H]C1([2H])n2c(c[nH]c2=S)[C@@H]2C[C@@]21c1cc(Cl)ccc1F [Example 91, (5aS,6aR)-5a-(5-chloro-2-fluorophenyl)-5,5a,6,6a-tetrahydrocyclopropa[3,4]pyrrolo[1,2-c]imidazole-3(2H)-thione-5,5-d2] | 22% | 0% | –
2 | Fc1c(Cl)cccc1[C@]12C[C@H]1c1c[nH]c(=S)n1C2 [Example 92, (5aS,6aR)-5a-(3-chloro-2-fluorophenyl)-5,5a,6,6a-tetrahydrocyclopropa[3,4]pyrrolo[1,2-c]imidazole-3 (2H)-thione] | 2% | 0% | –
3 | Fc1ccc(Br)cc1[C@]12C[C@H]1c1c[nH]c(=S)n1C2 [Example 93, (5aS,6aR)-5a-(5-bromo-2-fluorophenyl)-5,5a,6,6a-tetrahydrocyclopropa[3,4]pyrrolo[1,2-c]imidazole-3 (2H)-thione] | 0% | 0% | –
4 | Fc1cc(Br)cc([C@]23C[C@H]2c2c[nH]c(=S)n2C3)c1 [Example 94, (5aS,6aR)-5a-(3-bromo-5-fluorophenyl)-5,5a,6,6a-tetrahydrocyclopropa[3,4]pyrrolo[1,2-c]imidazole-3 (2H)-thione] | 18.1% | 0% | –
5 | Cc1[nH]c(=S)n2c1C[C@@H](c1cc(F)cc(F)c1)C2 [Example 95, (S)-6-(3,5-difluorophenyl)-1-methyl-2,5,6,7-tetrahydro-3H-pyrrolo[1,2-c]imidazole-3-thione] | – | – | 28.9%
6 | Cc1[nH]c(=S)n2c1C[C@H](c1c(F)c(F)cc(F)c1F)C2 [Example 96, (R)-1-methyl-6-(2,3,5,6-tetrafluorophenyl)-2,5,6,7-tetrahydro-3H-pyrrolo[1,2-c]imidazole-3-thione] | 32% | 15% | –
7 | Cc1[nH]c(=S)n2c1C[C@@H](c1c(F)c(F)cc(F)c1F)C2 [Example 97, (S)-1-methyl-6-(2,3,5,6-tetrafluorophenyl)-2,5,6,7-tetrahydro-3H-pyrrolo[1,2-c]imidazole-3-thione] | 41.9% | 7.9% | –
8 | Cc1[nH]c(=S)n2c1C[C@@H](c1c(F)cccc1F)C2 [Example 98, (S)-6-(2,6-difluorophenyl)-1-methyl-2,5,6,7-tetrahydro-3H-pyrrolo[1,2-c]imidazole-3-thione] | – | 39.9% | –
9 | Cc1[nH]c(=S)n2c1[C@@H]1C[C@]1(c1cc(Cl)ccc1F)C2 [Example 99, (5aS,6aR)-5a-(5-chloro-2-fluorophenyl)-1-methyl-5,5a,6,6a-tetrahydrocyclopropa[3,4]pyrrolo[1,2-c]imidazole-3 (2H)-thione] | 31.6% | 1% | –
10 | [2H]C([2H])([2H])c1[nH]c(=S)n2c1[C@@H]1C[C@]1(c1cc(Cl)ccc1F)C2 [Example 100, (5aS,6aR)-5a-(5-chloro-2-fluorophenyl)-1-(methyl-d3)-5,5a,6,6a-tetrahydrocyclopropa[3,4]pyrrolo[1,2-c]imidazole-3 (2H)-thione] | 0% | 0% | –
11 | [2H]C([2H])([2H])n1cc2n(c1=S)C[C@@]1(c3cc(Cl)ccc3F)C[C@@H]21 [Example 101, (5aS,6aR)-5a-(5-chloro-2-fluorophenyl)-2-(methyl-d3)-5,5a,6,6a-tetrahydrocyclopropa[3,4]pyrrolo[1,2-c]imidazole-3 (2H)-thione] | 14.5% | 0% | –
12 | [2H]C1([2H])C2([2H])c3c[nH]c(=S)n3CC12c1cc(Cl)ccc1F (stereo not drawn) [Example 102, 5a-(5-chloro-2-fluorophenyl)-5,5a,6,6a-tetrahydrocyclopropa[3,4]pyrrolo[1,2-c]imidazole-3(2H)-thione-6,6,6a-d3] | 32% | 0% | –
13 | Fc1ccc(Cl)c(F)c1[C@@]12C[C@@H]1c1c[nH]c(=S)n1C2 [Example 103, (5aR,6aS)-5a-(3-chloro-2,6-difluorophenyl)-5,5a,6,6a-tetrahydrocyclopropa[3,4]pyrrolo[1,2-c]imidazole-3 (2H)-thione] | 63.4% | 10.3% | –
14 | Cc1[nH]c(=S)n2c1C[C@H](c1c(F)ccc(Cl)c1F)C2 [Example 104, (R)-6-(3-chloro-2,6-difluorophenyl)-1-methyl-2,5,6,7-tetrahydro-3H-pyrrolo[1,2-c]imidazole-3-thione] | 47.5% | 6% | –
15 | Cc1[nH]c(=S)n2c1C[C@@H](c1c(F)ccc(Cl)c1F)C2 [Example 105, (S)-6-(3-chloro-2,6-difluorophenyl)-1-methyl-2,5,6,7-tetrahydro-3H-pyrrolo[1,2-c]imidazole-3-thione] | 17.4% | 0% | –
16 | Fc1cc(F)cc([C@]23C[C@H]2Cc2c[nH]c(=S)n2C3)c1 [Example 106, (5aS,6aS)-5a-(3,5-difluorophenyl)-2,5,5a,6,6a,7-hexahydro-3H-cyclopropa[d]imidazo[1,5-a]pyridine-3-thione] | – | – | 16.3%
17 | C[C@@H]1c2c[nH]c(=S)n2C[C@H]1c1c(F)c(F)cc(F)c1F [Example 107, (6R,7S)-7-methyl-6-(2,3,5,6-tetrafluorophenyl)-2,5,6,7-tetrahydro-3H-pyrrolo[1,2-c]imidazole-3-thione] | – | 54.7% | –
18 | C[C@H]1c2c[nH]c(=S)n2C[C@H]1c1c(F)c(F)cc(F)c1F [Example 108, (6R,7R)-7-methyl-6-(2,3,5,6-tetrafluorophenyl)-2,5,6,7-tetrahydro-3H-pyrrolo[1,2-c]imidazole-3-thione] | – | 38.8% | –
19 | S=c1[nH]cc2n1C[C@@]1(c3cc(Cl)cc(Cl)c3)C[C@@H]21 [Example 109, (5aS,6aR)-5a-(3,5-dichlorophenyl)-5,5a,6,6a-tetrahydrocyclopropa[3,4]pyrrolo[1,2-c]imidazole-3 (2H)-thione] | 67.5% | 17.2% | –
20 | Fc1ccc(Cl)cc1[C@@]12C[C@@H]1c1c[nH]c(=S)n1C2 [Example 110, (5aR,6aS)-5a-(5-chloro-2-fluorophenyl)-5,5a,6,6a-tetrahydrocyclopropa[3,4]pyrrolo[1,2-c]imidazole-3 (2H)-thione] | 73.8% | 15.9% | –
21 | Fc1cc(F)c(F)c([C@H]2CC3CNC(=S)N3C2)c1F (stereo partly drawn) [Example 111, (6R)-6-(2,3,5,6-tetrafluorophenyl)tetrahydro-1H-pyrrolo[1,2-c]imidazole-3(2H)-thione] | – | 48.3% | –
22 | Fc1ccc(F)c([C@@H]2Cc3c[nH]c(=S)n3C2)c1F [Example 112, (S)-6-(2,3,6-trifluorophenyl)-2,5,6,7-tetrahydro-3H-pyrrolo[1,2-c]imidazole-3-thione] | 70% | 10.1% | –
23 | Fc1ccc(F)c([C@H]2Cc3c[nH]c(=S)n3C2)c1F [Example 113, (R)-6-(2,3,6-trifluorophenyl)-2,5,6,7-tetrahydro-3H-pyrrolo[1,2-c]imidazole-3-thione] | 39.6% | 0% | –
24 | Cn1cc2n(c1=S)C[C@@H](c1c(F)c(F)cc(F)c1F)C2 [Example 114, (R)-2-methyl-6-(2,3,5,6-tetrafluorophenyl)-2,5,6,7-tetrahydro-3H-pyrrolo[1,2-c]imidazole-3-thione] | 70.8% | 15.2% | –
